Molecular target: T1, Recombinant human liver GK1 (GST-GK) (Homo sapiens, UniProt P35557)
T1 construct: made in house; host or cells: E. coli
T1 sequence (P35557 1-466 isoform P35557-2): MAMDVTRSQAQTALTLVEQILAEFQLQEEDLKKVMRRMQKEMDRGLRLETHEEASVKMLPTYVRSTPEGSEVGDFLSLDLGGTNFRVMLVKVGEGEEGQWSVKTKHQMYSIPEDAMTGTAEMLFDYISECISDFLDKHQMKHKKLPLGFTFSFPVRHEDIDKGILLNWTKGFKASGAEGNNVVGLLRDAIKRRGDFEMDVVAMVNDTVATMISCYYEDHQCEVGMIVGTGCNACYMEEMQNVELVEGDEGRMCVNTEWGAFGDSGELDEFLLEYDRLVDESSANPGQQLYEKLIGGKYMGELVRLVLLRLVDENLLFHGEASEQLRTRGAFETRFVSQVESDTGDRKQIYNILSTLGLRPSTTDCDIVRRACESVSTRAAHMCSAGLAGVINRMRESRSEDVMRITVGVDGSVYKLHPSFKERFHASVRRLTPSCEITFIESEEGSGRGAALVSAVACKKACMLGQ
Test: Glucokinase in vitro assay (G6PDH-coupled NADH generation, OD340)
Type: biochemical
Details: 30 uM test compound, 5 mM D-glucose
Method in brief: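 Activation readout is SC1.5, the activator concentration raising GK rate (OD340/min) 50% above 10% DMSO controls. The coupled reaction used GST-GK1 from E. coli, 5 mM glucose, 1 mM ATP, 1.8 mM NAD and 25 mM Hepes pH 7.1 at 30° C. Enzyme was added after a 10 min compound pre-incubation.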

Compound | fold activation @ 30 uM
CC(C)(O)Cn1ccc(NC(=O)[C@@H](CC2CCCC2)n2ncc(Oc3ccccc3C3CCCC3)cc2=O)n1 [Example 22B, (R)-3-Cyclopentyl-2-[4-(2-cyclopentyl-phenoxy)-6-oxo-6H-pyridazin-1-yl]-N-[1-(2-hydroxy-2-methyl-propyl)-1H-pyrazol-3-yl]-propionamide] | 1.22 fold
Cn1ccc(NC(=O)C(CC2CCCC2)n2nc(Oc3ccccc3)ccc2=O)n1 (centres unmarked) [Example 85, 3-cyclopentyl-N-(1-methyl-1H-pyrazol-3-yl)-2-(6-oxo-3-phenoxy-6H-pyridazin-1-yl)-propionamide] | 1.3 fold
CC(C)CC(C(=O)Nc1ccn(C[C@@H](O)CO)n1)n1ncc(Nc2ccccc2Cl)cc1=O (stereo partly drawn) [Example 122, 2-[4-(2-Chloro-phenylamino)-6-oxo-6H-pyridazin-1-yl]-4-methyl-pentanoic acid [1-((R)-2,3-dihydroxy-propyl)-1H-pyrazol-3-yl]-amide] | 1.36 fold

Same assay, conditions: 5 mM D-glucose, 30° C., pH 7.1, 10% DMSO

Compound | SC1.5 average (concentration of activator that produced a 50% increase in the activity of GK)
Cc1cccc(Oc2cnn(C(CC3CCCC3)C(=O)Nc3ccn(C[C@@H](O)CO)n3)c(=O)c2)n1 (stereo partly drawn) [Example 99, 3-Cyclopentyl-N-[1-((R)-2,3-dihydroxy-propyl)-1H-pyrazol-3-yl]-2-[4-(6-methyl-pyridin-2-yloxy)-6-oxo-6H-pyridazin-1-yl]-propionamide] | 1.277 µM
O=C(Nc1ccn(C[C@@H](O)CO)n1)C(CC1CCCC1)n1ncc(OCCc2ccccc2Cl)cc1=O (stereo partly drawn) [Example 114, 2-{4-[2-(2-Chloro-phenyl)-ethoxy]-6-oxo-6H-pyridazin-1-yl}-3-cyclopentyl-N-[1-((R)-2,3-dihydroxy-propyl)-1H-pyrazol-3-yl]-propionamide] | 1.656 µM
CC(C)(O)Cn1ccc(NC(=O)[C@@H](CC2CCCC2)n2ncc(Oc3cccc4c3CCCC4)cc2=O)n1 [Example 17B, (R)-3-Cyclopentyl-N-[1-(2-hydroxy-2-methyl-propyl)-1H-pyrazol-3-yl]-2-[6-oxo-4-(5,6,7,8-tetrahydro-naphthalen-1-yloxy)-6H-pyridazin-1-yl]-propionamide] | 9.14 µM
O=C(O)c1ccc(NC(=O)[C@@H](CC2CCCC2)n2ncc(Oc3ccccc3F)cc2=O)nc1 [Example 75B, 6-{(R)-3-Cyclopentyl-2-[4-(2-fluoro-phenoxy)-6-oxo-6H-pyridazin-1-yl]-propionylamino}-nicotinic acid] | 0.796 µM
CC(C)(O)Cn1ccc(NC(=O)C(CC2CCCC2)n2ncc3ccccc3c2=O)n1 (centres unmarked) [Example 84, 3-Cyclopentyl-N-[1-(2-hydroxy-2-methyl-propyl)-1H-pyrazol-3-yl]-2-(1-oxo-1H-phthalazin-2-yl)-propionamide] | 15.983 µM
CC(C)(O)Cn1ccc(NC(=O)[C@@H](CC2CCCC2)n2ncc(Oc3c(F)cccc3F)cc2=O)n1 [Example 36B, (R)-3-Cyclopentyl-2-[4-(2,6-difluoro-phenoxy)-6-oxo-6H-pyridazin-1-yl]-N-[1-(2-hydroxy-2-methyl-propyl)-1H-pyrazol-3-yl]-propionamide] | 1.596 µM
Cc1ccc(Oc2cnn(C(CC3CCCC3)C(=O)Nc3ccn(C[C@@H](O)CO)n3)c(=O)c2)c2c1CCC2 (stereo partly drawn) [Example 93, 3-Cyclopentyl-N-[1-((R)-2,3-dihydroxy-propyl)-1H-pyrazol-3-yl]-2-[4-(7-methyl-indan-4-yloxy)-6-oxo-6H-pyridazin-1-yl]-propionamide] | 0.114 µM
O=C(O)c1ccc(NC(=O)[C@@H](CC2CCCC2)n2ncc(Oc3c(F)cccc3F)cc2=O)nc1 [Example 73B, 6-{(R)-3-Cyclopentyl-2-[4-(2,6-difluoro-phenoxy)-6-oxo-6H-pyridazin-1-yl]-propionylamino}-nicotinic acid] | 0.507 µM
O=C(Nc1ccn(C[C@@H](O)CO)n1)C(CC1CCCC1)n1ncc(Oc2ncccc2F)cc1=O (stereo partly drawn) [Example 95, 3-Cyclopentyl-N-[1-((R)-2,3-dihydroxy-propyl)-1H-pyrazol-3-yl]-2-[4-(3-fluoro-pyridin-2-yloxy)-6-oxo-6H-pyridazin-1-yl]-propionamide] | 12.633 µM
CC(C)(O)Cn1ccc(NC(=O)C(CC2CCCCC2)n2ncc(Oc3ccc(OC(F)(F)F)cc3Cl)cc2=O)n1 (centres unmarked) [Example 119, 2-[4-(2-Chloro-4-trifluoromethoxy-phenoxy)-6-oxo-6H-pyridazin-1-yl]-3-cyclohexyl-N-[1-(2-hydroxy-2-methyl-propyl)-1H-pyrazol-3-yl]-propionamide] | 0.811 µM
CC(C)(O)Cn1ccc(NC(=O)C(Cc2c(F)cccc2F)n2ncc(Oc3c(F)cccc3F)cc2=O)n1 (centres unmarked) [Example 50, 2-[4-(2,6-Difluoro-phenoxy)-6-oxo-6H-pyridazin-1-yl]-3-(2,6-difluoro-phenyl)-N-[1-(2-hydroxy-2-methyl-propyl)-1H-pyrazol-3-yl]-propionamide] | 0.466 µM
CC(C)(O)Cn1ccc(NC(=O)[C@@H](CC2CCCC2)n2ncc(Oc3ccccc3C3CCCC3)cc2=O)n1 [Example 22B, (R)-3-Cyclopentyl-2-[4-(2-cyclopentyl-phenoxy)-6-oxo-6H-pyridazin-1-yl]-N-[1-(2-hydroxy-2-methyl-propyl)-1H-pyrazol-3-yl]-propionamide] | > 30 µM
O=C(Nc1ccn(C[C@@H](O)CO)n1)C(CC1CCCC1)n1ncc(Oc2cccc(Cl)c2Cl)cc1=O (stereo partly drawn) [Example 92, 3-Cyclopentyl-2-[4-(2,3-dichloro-phenoxy)-6-oxo-6H-pyridazin-1-yl]-N-[1-((R)-2,3-dihydroxy-propyl)-1H-pyrazol-3-yl]-propionamide] | 0.135 µM
O=C(Nc1ccn(C[C@@H](O)CO)n1)C(CC1CCCC1)n1ncc(Oc2nccc(C(F)(F)F)n2)cc1=O (stereo partly drawn) [Example 115, 3-Cyclopentyl-N-[1-((R)-2,3-dihydroxy-propyl)-1H-pyrazol-3-yl]-2-[6-oxo-4-(4-trifluoromethyl-pyrimidin-2-yloxy)-6H-pyridazin-1-yl]-propionamide] | 0.376 µM
CC(C)(O)Cn1ccc(NC(=O)[C@@H](CC2CCCC2)n2ncc(Oc3ccc(F)cc3F)cc2=O)n1 [Example 32B, (R)-3-Cyclopentyl-2-[4-(2,4-difluoro-phenoxy)-6-oxo-6H-pyridazin-1-yl]-N-[1-(2-hydroxy-2-methyl-propyl)-1H-pyrazol-3-yl]-propionamide] | 26.185 µM
O=C(O)c1ccc(NC(=O)[C@H](CC2CCCC2)n2ncc(Oc3c(F)cccc3F)cc2=O)nc1 [Example 73A, 6-{(S)-3-Cyclopentyl-2-[4-(2,6-difluoro-phenoxy)-6-oxo-6H-pyridazin-1-yl]-propionylamino}-nicotinic acid] | 0.012 µM
Cn1nc(C(F)(F)F)cc1Oc1cnn(C(CC2CCCC2)C(=O)Nc2ccn(C[C@@H](O)CO)n2)c(=O)c1 (stereo partly drawn) [Example 103, 3-Cyclopentyl-N-[1-((R)-2,3-dihydroxy-propyl)-1H-pyrazol-3-yl]-2-[4-(2-methyl-5-trifluoromethyl-2H-pyrazol-3-yloxy)-6-oxo-6H-pyridazin-1-yl]-propionamide] | 2.591 µM
Cn1ccc(NC(=O)C(CC2CCCC2)n2nc(Oc3ccccc3)ccc2=O)n1 (centres unmarked) [Example 85, 3-cyclopentyl-N-(1-methyl-1H-pyrazol-3-yl)-2-(6-oxo-3-phenoxy-6H-pyridazin-1-yl)-propionamide] | > 30 µM
O=C(Nc1ccn(CCO)n1)C(Cc1c(F)cccc1F)n1ncc(Oc2c(F)cccc2F)cc1=O (centres unmarked) [Example 57, 2-[4-(2,6-Difluoro-phenoxy)-6-oxo-6H-pyridazin-1-yl]-3-(2,6-difluoro-phenyl)-N-[1-(2-hydroxy-ethyl)-1H-pyrazol-3-yl]-propionamide] | 0.986 µM
O=C(O)c1ccc(NC(=O)[C@@H](CC2CCCC2)n2ncc(Oc3cccc4c3CCCC4)cc2=O)nc1 [Example 72B, 6-{(R)-3-Cyclopentyl-2-[6-oxo-4-(5,6,7,8-tetrahydro-naphthalen-1-yloxy)-6H-pyridazin-1-yl]-propionylamino}-nicotinic acid] | 0.226 µM
CC(C)CC(C(=O)Nc1ccn(C[C@@H](O)CO)n1)n1ncc(Nc2ccccc2Cl)cc1=O (stereo partly drawn) [Example 122, 2-[4-(2-Chloro-phenylamino)-6-oxo-6H-pyridazin-1-yl]-4-methyl-pentanoic acid [1-((R)-2,3-dihydroxy-propyl)-1H-pyrazol-3-yl]-amide] | > 30 µM
CC(C)(O)Cn1ccc(NC(=O)[C@H](CC2CCCC2)n2ncc(Oc3cc(F)ccc3F)cc2=O)n1 [Example 33A, (S)-3-Cyclopentyl-2-[4-(2,5-difluoro-phenoxy)-6-oxo-6H-pyridazin-1-yl]-N-[1-(2-hydroxy-2-methyl-propyl)-1H-pyrazol-3-yl]-propionamide] | 0.265 µM
CC(C)(O)Cn1ccc(NC(=O)[C@H](CC2CCCC2)n2ncc(Oc3ccccc3C#N)cc2=O)n1 [Example 29A, (S)-2-[4-(2-Cyano-phenoxy)-6-oxo-6H-pyridazin-1-yl]-3-cyclopentyl-N-[1-(2-hydroxy-2-methyl-propyl)-1H-pyrazol-3-yl]-propionamide] | 0.159 µM

Reference: patent US8258134B2, “Pyridazinone glucokinase activators” (Hoffmann-La Roche Inc., priority 2008, dated 2012)
